Measurements as given in US20060084599A1, “Compositions, methods and kits relating to notch signaling” (Maine Medical Center, priority 2003, published 2006).

Legend:
[1] = system: FGF1R136K NIH 3T3 cell transfectants; experiment: Thrombin stimulation and immunoblot analysis of FGF1 release; assay type: cell-based, murine
Method: FGF1R136K NIH 3T3 cell transfectants or adenovirally-transduced NIH 3T3 cells were washed with DMEM containing 5 units/ml of heparin (Sigma) and stimulated with either 10 μg/ml α-thrombin (a gift from Dr. J. Fenton) or 5 μM TRAP (Sigma) at 37° C. for different periods of time. Control cells were incubated in the absence of thrombin for the same time period. Conditioned media were collected at each time period, filtered, and concentrated as previously described (Jackson et al., 1992, Proc. Natl. Acad. Sci. U.S.A. 89:10691-10695). The concentrates were resolved by SDS-PAGE and subjected to immunoblot analysis using a rabbit antibody against either FGF1 (Jackson et al., 1992), Syt1 (LaVallee et al., 1998, J. Biol. Chem. 273:22217-22223) or Myc (Oncogene). The heat shock-induced release of FGF1 was performed at 42° C. for 110 minutes as previously described (Jackson et al., 1992). Cell viability was assessed by measuring lactate dehydrogenase activity in the conditioned medium after filtration as disclosed previously elsewhere herein (published as Mandinova et al., 2003, J. Cell Sci. 116:2687-2696), and total cell lysates were obtained and processed for immunoblot analysis as described (Landriscina et al., 2001, J. Biol. Chem. 276:22544-22552).
Stable FGF1R136K NIH 3T3 cell transfectants were pre-incubated with either 100 ng/ml pertussis toxin (PTX) or 10 ng/ml cholera toxin (CT) for 60 minutes at 37° C. in DMEM containing 10% BCS. After pre-incubation, the cells were washed, stimulated with 10 μg/ml of thrombin for different periods of time in the presence of either 100 ng/ml PTX or 10 ng/ml CT, conditioned medium collected, and subjected to immunoblot analysis as described above.

FGF1.A promoter = FGF1.A promoter luciferase reporter; assay type: cell-based, murine; conditions: sJ1 NIH 3T3 cell transfectants versus insert-less vector
Method: In order to confirm the sJ1-dependent function of the FGF1.A promoter, the corresponding 1.8 Kbp region (Madiai et al., 1999, J. Biol. Chem. 274:11937-11944) was cloned into a promoter-less firefly luciferase reporter vector and FGF1.A-driven firefly luciferase activity was evaluated in both insert-less vector and sJ1 NIH 3T3 cell transfectants.

NCSC populations = experiment: Dosage sensitivity of secondary NCSC to BMP2 and sDl1; assay type: cell-based, murine; conditions: founders expanded 18 days; BMP2 and sDl1 dose response
Method: It is well established that quantitative changes in the dosage sensitivity of NCSC populations occur in vitro and in vivo during NCSC self-renewal (Kubu et al., 2002, Dev. Biol. 244:199-214; White et al., 1999, Development 126:4351-4363; White et al., 2001, Neuron 29:57-71). In order to resolve whether it was possible to clonally expand stem cell populations without the loss of qualitative or quantitative differentiation potential, it was evaluated whether NCSC population expansion in either a thrombin or a sJ 1 environment was able to maintain the quantitative dosage sensitivity of the NCSC populations to instructive differentiation factors. NCSC clones were expanded with either thrombin, TRAP, or sJ1 for 18 days, the clones dissociated to a clonal density every 6 days to minimize cell-cell interactions, and the p75^+/P0^− cells identified. The dosage sensitivity of secondary NCSC populations to both BMP2 and sDl1 was evaluated using the clonogenic differentiation assay to quantitate the production of neuron-only clones (BMP2) and glial-only clones (sDl1) after day 18.

human Jagged1 [2] = target: T1, human Jagged1 (Homo sapiens, UniProt P78504, A1171G); experiment: Thrombin cleavage of in vitro translated Jagged1 and Edman microsequencing; assay type: biochemical; conditions: α-thrombin, 15 minutes at 37° C.
T1 construct: the full-length human Jagged1 transcript was in vitro translated; made in house; host or cells: cell-free: T7-coupled reticulocyte lysate system (Promega)
T1 sequence (P78504 34-1218 A1171G): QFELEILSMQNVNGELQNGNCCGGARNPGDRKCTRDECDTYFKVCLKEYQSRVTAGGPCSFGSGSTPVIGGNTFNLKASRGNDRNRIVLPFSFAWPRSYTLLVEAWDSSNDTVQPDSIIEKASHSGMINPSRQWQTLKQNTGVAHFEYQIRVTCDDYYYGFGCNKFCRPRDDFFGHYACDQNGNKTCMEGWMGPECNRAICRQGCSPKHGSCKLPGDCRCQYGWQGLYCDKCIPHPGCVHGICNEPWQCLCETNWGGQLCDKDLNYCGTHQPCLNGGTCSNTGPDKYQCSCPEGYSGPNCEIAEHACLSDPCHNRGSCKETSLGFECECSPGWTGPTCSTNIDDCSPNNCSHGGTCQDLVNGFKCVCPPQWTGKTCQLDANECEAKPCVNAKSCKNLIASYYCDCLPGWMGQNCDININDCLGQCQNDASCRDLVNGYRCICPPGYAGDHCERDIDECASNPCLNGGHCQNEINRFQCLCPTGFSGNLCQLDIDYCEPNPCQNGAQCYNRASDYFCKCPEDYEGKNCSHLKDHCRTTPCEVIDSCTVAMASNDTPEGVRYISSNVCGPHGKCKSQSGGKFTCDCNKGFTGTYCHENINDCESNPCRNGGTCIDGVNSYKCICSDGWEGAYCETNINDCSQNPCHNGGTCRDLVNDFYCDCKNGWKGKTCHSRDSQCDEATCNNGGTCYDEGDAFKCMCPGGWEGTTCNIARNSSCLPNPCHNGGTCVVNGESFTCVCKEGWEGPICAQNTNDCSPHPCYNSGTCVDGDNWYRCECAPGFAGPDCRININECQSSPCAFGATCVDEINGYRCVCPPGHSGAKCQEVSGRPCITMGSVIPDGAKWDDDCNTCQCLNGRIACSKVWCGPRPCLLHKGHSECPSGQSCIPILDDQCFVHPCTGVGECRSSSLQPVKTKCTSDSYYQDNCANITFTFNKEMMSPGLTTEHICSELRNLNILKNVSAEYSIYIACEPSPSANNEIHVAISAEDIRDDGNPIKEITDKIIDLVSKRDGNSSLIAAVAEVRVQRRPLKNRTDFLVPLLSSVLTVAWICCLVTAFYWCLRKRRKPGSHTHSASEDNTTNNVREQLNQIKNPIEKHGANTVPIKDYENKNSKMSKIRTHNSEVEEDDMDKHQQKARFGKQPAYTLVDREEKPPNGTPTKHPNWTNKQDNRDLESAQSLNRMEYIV
Method: (§1) A plasmid containing human Jagged1 (Zinrin et al., 1996, J. Biol. Chem. 271:32499-32502) was in vitro transcribed and in vitro translated in the presence of a (^35S)-Met/Cys protein-labeling mixture (Amersham) using the T7-coupled reticulocyte lysate system according to the manufacturer's instructions (Promega) in a total volume of 50 μl. After 60 minutes incubation at 30° C., 0.05% DTT was added, half of the reaction mixture incubated with 10 μg α-thrombin for 15 minutes at 37° C., and the reaction stopped by boiling in the presence of SDS-PAGE sample buffer. The samples were resolved by 12% SDS-PAGE, transferred to a nitrocellulose membrane, and analyzed by autoradiography. The bands corresponding to the thrombin cleavage products were excised and subjected to automated Edman microsequencing (Applied Bio Sciences). The products of each cycle were collected prior to resolution by HPLC, added to liquid scintillation fluid (Beckman) and the (^35S) samples quantitated by liquid scintillation spectroscopy (Beckman).

human Jagged1 [3] = target: T2, human Jagged1 (Homo sapiens, UniProt P78504); experiment: as above; assay type: biochemical; conditions: Edman chemistry of 95 kDa fragment
T2 construct: the full-length human Jagged1 transcript was in vitro translated; made in house; host or cells: cell-free: T7-coupled reticulocyte lysate system (Promega)
T2 sequence (P78504 34-1218 A1171G): as above
Method: as §1

Delta1 = target: T3, Delta1 (Homo sapiens, UniProt O00548); experiment: Thrombin treatment of in vitro translated Delta1; assay type: biochemical
T3 construct: made in house; host or cells: cell-free in vitro translation (system not described for Delta1)
T3 sequence (O00548 18-723): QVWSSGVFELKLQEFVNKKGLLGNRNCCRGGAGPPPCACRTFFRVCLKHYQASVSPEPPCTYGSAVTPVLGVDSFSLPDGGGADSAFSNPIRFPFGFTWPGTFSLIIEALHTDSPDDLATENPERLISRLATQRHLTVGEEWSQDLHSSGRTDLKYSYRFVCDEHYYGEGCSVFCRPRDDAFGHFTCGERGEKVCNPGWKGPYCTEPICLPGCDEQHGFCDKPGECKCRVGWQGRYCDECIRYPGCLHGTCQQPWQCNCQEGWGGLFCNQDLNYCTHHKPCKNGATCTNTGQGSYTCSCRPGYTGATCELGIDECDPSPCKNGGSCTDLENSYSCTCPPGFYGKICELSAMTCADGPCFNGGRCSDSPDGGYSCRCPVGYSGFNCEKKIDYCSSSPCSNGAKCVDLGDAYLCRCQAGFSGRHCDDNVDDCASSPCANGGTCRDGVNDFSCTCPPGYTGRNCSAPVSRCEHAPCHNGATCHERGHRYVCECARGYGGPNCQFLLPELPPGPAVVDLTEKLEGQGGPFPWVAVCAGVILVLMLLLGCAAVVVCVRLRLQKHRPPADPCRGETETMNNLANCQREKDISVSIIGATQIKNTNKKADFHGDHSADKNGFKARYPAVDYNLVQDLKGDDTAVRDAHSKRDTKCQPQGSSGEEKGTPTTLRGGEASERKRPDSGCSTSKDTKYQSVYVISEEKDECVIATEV

PAR1 null cells = experiment: FGF1 release from PAR1 null cells; assay type: cell-based, mouse; conditions: 10 μg/ml α-thrombin, 5 and 60 minutes
Method: Murine NIH 3T3 (ATCC), Swiss 3T3 (ATCC), sJ1 NIH 3T3 cell transfectants were all disclosed elsewhere herein (e.g., Example 1), FGF1 NIH 3T3 transfectants (Jackson et al., 1992, Proc. Natl. Acad. Sci. U.S.A. 89:10691-10695) and PAR1 null mouse embryonic fibroblasts (a gift from Dr. S. Coughlin) were grown in Dulbecco's modified Eagle's medium (DMEM; Life Technologies) supplemented with 10% bovine calf serum (BCS; Hyclone) and 1× antibiotic/antimycotic (Life Technologies). All stable NIH 3T3 cell transfectant cultures were further supplemented with 0.4 g/L Geneticin (GIBCO). […]
FGF1R136K NIH 3T3 cell transfectants or adenovirally-transduced NIH 3T3 cells were washed with DMEM containing 5 units/ml of heparin (Sigma) and stimulated with either 10 μg/ml α-thrombin (a gift from Dr. J. Fenton) or 5 μM TRAP (Sigma) at 37° C. for different periods of time. […] Cell viability was assessed by measuring lactate dehydrogenase activity in the conditioned medium after filtration as disclosed previously elsewhere herein (published as Mandinova et al., 2003, J. Cell Sci. 116:2687-2696), and total cell lysates were obtained and processed for immunoblot analysis as described (Landriscina et al., 2001, J. Biol. Chem. 276:22544-22552). […]

With “sJ1: Soluble Jagged1, amino acid residues about 1 to 1067 (SEQ ID NO:3) of full-length human Jagged1” as the substance, how does the “time after which detectable extracellular FGF-1 was present” value ([1]; 37° C.) read?
Its value is 5 min.

What about the FGF1.A-driven promoter activity (FGF1.A promoter) of the same substance?
Its FGF1.A-driven promoter activity is “significant increase in the FGF1.A-driven promoter activity”.

And the “shift in sensitivity of secondary stem cells to instructive differentiation signals” value (NCSC populations)?
Its value is “this shift in sensitivity to instructive differentiation signals was not observed”.

With thrombin as the substance, how does the “export of FGF2” value [1] read?
Its value is “unable to induce the export of FGF2”.

What about the “thrombin concentration giving maximal release of FGF1R136K” value ([1]; 37° C.) of the same substance?
The value was 10 µg/mL.

And the “time after which detectable extracellular FGF-1 was present” value ([1]; 37° C.)?
Its value is 5 min.

And the “release of FGF1R136K into the extracellular compartment” value ([1]; 37° C., 10 μg/ml α-thrombin or 5 μM TRAP)?
The value was “rapid and sustained appearance of the FGF1R136K mutant in the extracellular compartment”.

What about the “release of FGF1R136K from cells transduced with constitutively active Notch1” value ([1]; caN1-transduced FGF1R136K NIH 3T3 cells) of the same substance?
The value was “unable to initiate the release of the FGF1R136K mutant”.

And the “release of S100A13” value ([1]; cells co-expressing S100A13 and FGF1R136K, 37° C.)?
The value was “presence of S100A13 in the extracellular compartment with kinetics similar to that observed with FGF1”.

And the “release of p40 Syt1” value ([1]; p40 Syt1-transduced FGF1R136K NIH 3T3 cells)?
Its value is “presence of p40 Syt1in the extracellular compartment”.

And the “cleavage of 134 kDa Jagged1 translation product” value (human Jagged1 [2])?
Its value is “cleavage of the full-length Jagged1 protein into 39 kDa and 95 kDa fragments”.

And the Jagged1 cleavage site (human Jagged1 [3])?
The Jagged1 cleavage site was “between residues R348 and G349”.

What about the “proteolytic modification of Delta1 translation product” value (Delta1) of the same substance?
Its value is “unable to proteolytically modify the in vitro translation product of the Delta1 transcript”.

What about the “export of FGF1R136K from PAR1 null cells” value (PAR1 null cells) of the same substance?
Its value is “unable to induce the export of the FGF1R136K mutant”.

What about the “shift in sensitivity of secondary stem cells to instructive differentiation signals” value (NCSC populations) of the same substance?
The value was “this shift in sensitivity to instructive differentiation signals was not observed”.
